# Assay results as given in patent US20130172324A1, “METHOD FOR TREATING CARDIOVASCULAR DISEASES USING RHO KINASE INHIBITOR COMPOUNDS” (priority 2008, published 2013).
# Read-outs that look alike come from different tables or passages of the source.
# Tests used:
# rat trachea rings = test: Tracheal relaxation assay (carbachol precontracted rings); settings: for Percentage of carbachol-induced contraction at 1 μM compound, Avg % / Percentage of carbachol-induced contraction at 10 μM compound, Avg %: 1 μM carbachol; for IC50: read-out: IC50 Avg; for Trachael Ring Contraction, %: average percentage of carbachol-induced rat tracheal ring contraction at 1 μM of test compound;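 as to all read-outs here: isometric tension of rat tracheal rings in Krebs buffer with 1 µM indomethacin, compounds added cumulatively at 30 min intervals, basal tension subtracted, fit to Hill equation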
# Description: The effects of compounds to induce relaxation of pre-contracted rat trachealis were determined. […] Trachea were excised, cleaned of connective tissue and cut into cylindrical segments of 2-3 mm length. Two stainless steel wires were guided through the lumen of the tracheal ring. One wire was fixed in the tissue bath and the other was connected to a force transducer via surgical silk. […] Indomethacin (1 μM), a cyclooxygenase inhibitor, was added to the Krebs buffer and was present throughout the experiments. Contractile tensions were measured using an isometric force transducer (Grass Instruments) and signals were analyzed using specialized software (Chart v5.5, ADInstruments). The preparations were allowed to equilibrate at a resting tension of 0.3 to 0.5 gm prior to two challenges with 60 mM KCl to assess tissue viability. After washing, tissues were treated with 1 μM carbachol for 10 to 15 minutes to induce a contractile response. Test Compounds were added cumulatively to the bath every 30 minutes and reductions in tension were recorded. Basal tension was subtracted from all values and data were reported as a percentage of the maximal carbachol-induced contraction. Data were fit to the Hill equation using GraphPad Prism v5 software.
# [1] = Rat oral pharmacokinetics (plasma); type: in vivo
# Description: Plasma (EDTA K2 anticoagulant) was collected from male, cannulated, CD Sprague Dawley rats to determine the pharmacokinetics of formulations containing compound inhibitors of Rho kinase. Each animal was dosed orally with a 4 ml/kg solution or suspension of each test compound in 10 mM acetate buffered saline, pH 4.5 at a final concentration range of 20-30 μmol/kg. Blood was collected at 0.25, 0.5, 1, 2, 4, 6, 8, and 24 hours. Plasma samples were assayed for the concentration of the test compound using an on-line, solid phase extraction LC/MS/MS analysis system.
# Samples were analyzed on a QSTAR Elite, hybrid quadrupole time-of-flight mass spectrometer (Applied Biosystems, Framingham, Mass.) coupled with a Symbiosis Pharma integrated, on-line SPE-HPLC system (Spark Holland Inc., Plainsboro, N.J.). Analyst QS 2.0 software was used for instrument control, data acquisition and processing. […] Mobile Phase A consisted of 0.1% ammonium hydroxide in water and Mobile Phase B consisted of 0.1% formic acid in acetonitrile. Pharmacokinetic analyses were performed using WinNonlin software version 5.2 (Pharsight Corporation, Mountain View, Calif.).
# As determined from the plasma concentration versus time curves, the time to peak and peak exposure are represented by the values Tmax and Cmax, respectively. The AUC values (nM*hr) shown were calculated as the areas under the plasma concentration versus time curves from time zero through the time of the last observable value and represent the total exposure of the compound over the course of the study. Half-life values or the amount of time required for the plasma levels of the compound to decline to half the initial value are represented as t1/2.
# [2] = test system: ova-sensitized, ova-challenged mice; test: In vivo anti-inflammatory assay in ovalbumin-sensitized mice (BALF eosinophils and cytokines); design: species or system mouse; settings: dosed orally to day 31, anti-inflammatory dosing paradigm; FIG. 11
# Source text: A mouse model of asthma via ovalbumin sensitization was created as described in Example 23. The anti-inflammatory dosing paradigm (FIG. 10) was utilized to evaluate the anti-inflammatory effects of experimental compounds. The anti-inflammatory dosing paradigm consists of dosing the animals once a day starting on day 27 and finishing on either day 30 or 31 (1 hr prior to the aerosolized ovalbumin challenges on days 28 to 30) but not on day 32 when hyperreactivity evaluation occurs.
# Bronchoalveolar lavage fluid (BALF) was collected by infusing 3.0 ml of saline with 10% fetal calf serum into the lungs via the trachea and then withdrawing the fluid. The total amount of cells/ml of BALF fluid was determined via manual cell count on hemocytometer. The BALF was centrifuged, supernatant removed and analyzed for cytokine concentrations as described below, and cell pellet reconstituted in 500 μL of fluid. Cytospin slides were prepared from the cell pellet using 100 μL of fluid and spinning samples for 5 minutes at 5000 rpms in a cytospin centrifuge. Following Hema3 stain, relative percentages of individual leukocytes were determined on a 200 cell count for each sample. The final concentration of individual leukocyte cell types per ml of BALF was determined by multiplication of the relative percentage of individual leukocytes with the total amount of cells/ml of BALF fluid.
# The concentrations of cytokines in the BALF samples were determined using commercially available Bio-plex kits (Bio-Rad) for the detection of mouse IL-5, IL-13, and Eotaxin. The analysis of cytokine levels was measured using the Bio-Plex 200 (Bio-Rad) system according to the manufacturer's instructions.
# [3] = test system: ova-sensitized, ova-challenged mice; test: Bronchodilator assay in ovalbumin-sensitized mice (Penh, methacholine); type: in vivo, mouse; settings: for log10AUC (penh): bronchodilator dosing paradigm
# Description: Male BALB/c mice were ordered from Charles River Laboratories (Raleigh, N.C.). The animals were approximately 19 to 21 grams at time of receipt. Upon arrival, the animals were randomized into groups of five males per cage and assigned to a dosing group. Animals were quarantined for 7 days under test conditions. They were observed daily for general health status and ability to adapt to the water bottles.
# Animals were sensitized on day 0 and 14 of study by an intraperitoneal injection with 20 μg of ovalbumin (ova) and 2.0 mg aluminum hydroxide (alum) which initiates the development of a specific T-helper (Th) cells type 2 resulting in asthmatic animals. One group of animals received an injection of saline to use as non-asthmatic control animals. All animals were challenged with aerosolized 1% ova once daily for 25 minutes on days 28, 29, and 30 (Zosky, et al. Respiratory Research. 2004; 5:15). Aerosol challenge consists of using an Aerogen Aeroneb nebulizer and controller with a particle size of 4-6 μm mass median aerodynamic diameter (MMAD) with a distribution of 400 μl per minute. This aerosol challenge is necessary to target the Th2-driven allergic inflammation in the lower airways.
# The test compounds and the control vehicle were administered to animals on the day of airway hyperreactivity evaluation 30 minutes to 1 hour before the evaluation to determine the bronchodilator effects of the compounds according to the bronchodilator dosing paradigm (FIG. 8). Compounds were administered p.o. (orally), i.p. (intraperitoneally) at 15 μMol/kg unless otherwise noted (Table 6). Alternatively, compounds were administered i.t. (intratracheally) at varying doses as shown (FIG. 9). On day 32 of the experiment, airway hyperreactivity was evaluated by placing conscious, unrestrained animals in a whole body plethysmometer (Buxco Wilmington, N.C.) and exposing them to escalating doses of nebulized methacholine, a known bronchial constrictor which acts through the muscarinic receptors of the lungs, (doses: 0.325-50 mg/ml). Exposure to the methacholine doses consisted of a 3 minute period during which a nebulizer was aerosolizing the methacholine and an additional 3 minute period following the cessation of nebulization. Over this 6 minute period, the plethysmometer monitors and generates numerical values for all parameters of the breath pattern. Enhanced pause (Penh), a unitless index of airway hyperreactivity, is derived from the expiratory side of the respiratory waveform measured via the plethysmograph and is used as an indirect measure of airway resistance and hyperreactivity. […] Following the methacholine dose response, all animals were anesthetized, bled and euthanized.
# Within each experiment, a mouse was given a single compound and exposed to increasing doses of methacholine [0 (baseline), 0.375, 0.75, 1.5, 3, 6, 12, 25, 50 mg/ml]. The Penh value at each of the dose levels of methacholine represents the 6-minute average response. Change from baseline (CFB) in Penh was calculated at each methacholine dose and the area under the curve (AUC) for these CFB values was calculated using the trapezoidal rule. This same approach was applied for each mouse across multiple experiments.
# For statistical analyses, a linear mixed-effects model where the response was the log 10 transformed value of AUC described above was used. Data from equal experimental conditions across experiments performed on different days were pooled for statistical analysis and data reporting. The various compounds were compared adjusting for the log 10-transformed baseline value of Penh and the chamber (1 of 10) of the plethysmometer each mouse was contained in during an experiment. A random intercept for each experiment was assumed to account for possible similarities of the results obtained from a given experiment (i.e., as a “blocking effect”). […] Computations were performed using PROC MIXED (SAS Version 9.1). […]
# [4] = test system: ova-sensitized, ova-challenged mice; test: Prevention of airway hyperreactivity development, anti-inflammatory dosing paradigm (Penh); type: in vivo, mouse; settings: for airway hyperreactivity: intratracheal once a day, days 27 to 30 (1.091) or 27 to 31
# ERK2 = molecular target: T1, ERK2 (Homo sapiens, UniProt P28482); test: Kinase panel screen (KinaseProfiler), ERK2; type: biochemical; settings: 10 μM ATP
# T1 construct: purchased Upstate, Millipore Bioscience Division (KinaseProfiler service)
# Description: (§1) Compounds of Formulae I and II were examined for activity against a selected panel of kinases using the KinaseProfiler™ enzyme profiling services (Upstate, Millipore Bioscience Division). Percent kinase activity at 10 μM and 1 μM test compound and 10 μM ATP was determined against 40 wild-type recombinant human kinases according to Upstate's standard protocol: ASK1, BTK, CSK, c-RAF, GCK, GSK3β, IKKα, IKKβ, IRAK1, IRAK4, JNK1α1, JNK2α2, JNK3, ERK1, ERK2, MAPKAP-K2, MAPKAP-K3, MEK1, MKK4, MKK6, MKK7β, Mnk2, MSK1, PAK3, PDK1, PRAK, ROCK1, Rsk2, SAPK2a, SAPK2b, SAPK3, SAPK4, SRPK1, SRPK2, Syk, TAK1, TBK1, PI3-Kβ, PI3-Kγ, PI3-Kδ.
# ERK1 = molecular target: T2, ERK1 (Homo sapiens, UniProt P27361); test: Kinase panel screen (KinaseProfiler), ERK1; type: biochemical; settings: 10 μM ATP
# T2 construct: purchased Upstate, Millipore Bioscience Division (KinaseProfiler service)
# Description: as §1
# [5] = test system: cytokine secretion from LPS-stimulated human monocytes; test: Human monocyte cytokine secretion assay (LPS); type: cell-based
# Description: Peripheral blood from healthy human volunteers was collected and the monocytes isolated via Ficoll-paque density centrifugation. […] The cells were allowed to pre-incubate with test compound at the indicated concentration for 30 minutes (37° C., 5% CO2, humidified air); after which the supernatant was removed and media containing compound and 1 ng/mL LPS was added. Cells were allowed to incubate with compounds and LPS for 4 hours at 37° C. after which the supernatant was removed and stored at −80° C. Cytokine concentrations in the supernatant were determined using commercially available Bio-Rad Bio-plex™ kits according the manufacturer's instructions.
# [6] = rat, oral, 20-30 μmol/kg, plasma, mean of n = 3
# T2 sequence (P27361 whole entry): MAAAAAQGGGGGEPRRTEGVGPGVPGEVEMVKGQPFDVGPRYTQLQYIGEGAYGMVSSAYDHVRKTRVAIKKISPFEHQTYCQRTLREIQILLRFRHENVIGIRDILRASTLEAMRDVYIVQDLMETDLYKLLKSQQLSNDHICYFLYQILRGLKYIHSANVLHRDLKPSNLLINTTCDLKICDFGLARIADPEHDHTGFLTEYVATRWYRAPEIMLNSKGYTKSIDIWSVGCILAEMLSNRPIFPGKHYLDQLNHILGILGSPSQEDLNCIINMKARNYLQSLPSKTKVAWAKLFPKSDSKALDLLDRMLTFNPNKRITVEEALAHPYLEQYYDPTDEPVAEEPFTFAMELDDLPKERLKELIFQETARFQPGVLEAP
# T1 sequence (P28482 whole entry): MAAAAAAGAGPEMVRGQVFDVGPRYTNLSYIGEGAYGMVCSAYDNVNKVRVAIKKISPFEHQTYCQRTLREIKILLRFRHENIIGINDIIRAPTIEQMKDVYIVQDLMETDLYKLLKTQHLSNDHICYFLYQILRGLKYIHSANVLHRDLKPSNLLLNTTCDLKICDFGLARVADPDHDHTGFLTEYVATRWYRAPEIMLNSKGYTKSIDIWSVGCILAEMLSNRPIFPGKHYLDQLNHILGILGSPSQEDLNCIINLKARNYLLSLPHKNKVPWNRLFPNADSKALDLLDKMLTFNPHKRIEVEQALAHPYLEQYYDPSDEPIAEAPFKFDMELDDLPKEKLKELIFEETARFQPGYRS
structure (smiles),measurement,setting,value
"OCCOc1cccc(CN2CCC[C@@H](Nc3ccc4[nH]ncc4c3)C2)c1 [Compound 1.092, (R)-2-(3-((3-(1H-indazol-5-ylamino)piperidin-1-yl)methyl)phenoxy)ethanol]","Percentage of carbachol-induced contraction at 1 μM compound, Avg %",rat trachea rings,67.7%
same,"Percentage of carbachol-induced contraction at 10 μM compound, Avg %",rat trachea rings,−2.9%
same,IC50,rat trachea rings; Rattus norvegicus,453 nM
same,Vz_F,[1]; [6],19.0 L/kg
"c1cc2cc(CN3CCC[C@@H](Nc4ccc5[nH]ncc5c4)C3)ccc2o1 [Compound 1.131, (R)-N-(1-(benzofuran-5-ylmethyl)piperidin-3-yl)-1H-indazol-5-amine]",eosinophils per ml of BALF (airway eosinophil infiltration),[2],reduced
same,log10AUC (penh),[3]; 15 μmol/kg oral,2.0283
same,reduction in airway hyperresponsiveness,[3]; oral doses,statistically significant reduction
same,"Percentage of carbachol-induced contraction at 1 μM compound, Avg %",rat trachea rings,37.4%
same,"Percentage of carbachol-induced contraction at 10 μM compound, Avg %",rat trachea rings,14.2%
same,IC50,rat trachea rings; Rattus norvegicus,243 nM
same,"Trachael Ring Contraction, %",rat trachea rings,37%
same,plasma and lung tissue concentrations after oral dosing,"[1]; oral dosing, refers to Table 13 and Table 15",high plasma and lung tissue concentrations
same,airway hyperreactivity to methacholine,"[4]; oral 15 μMol/kg once a day during days 27 to 31, methacholine on Day 32",prevention of airway hyperreactivity
"CCc1ccc(CN2CCC[C@@H](Nc3ccc4[nH]ncc4c3)C2)cc1 [Compound 1.136, (R)-N-(1-(4-ethylbenzyl)piperidin-3-yl)-1H-indazol-5-amine]",log10AUC (penh),[3]; 15 μmol/kg intraperitoneal,2.1379
same,log10AUC (penh),[3]; 15 μmol/kg oral,2.2490
same,reduction in airway hyperresponsiveness,"[3]; i.p. route, compared to oral dosing",enhanced reduction
same,reduction in airway hyperresponsiveness,[3]; oral doses,did not yield a significant reduction
same,"Percentage of carbachol-induced contraction at 1 μM compound, Avg %",rat trachea rings,45.0%
same,"Percentage of carbachol-induced contraction at 10 μM compound, Avg %",rat trachea rings,19.7%
same,IC50,rat trachea rings; Rattus norvegicus,861 nM
same,"Trachael Ring Contraction, %",rat trachea rings,45%
same,oral bioavailability,[1]; oral dosing,poor oral bioavailability
same,AUC (0-last),[1]; [6],BLQ
same,Cmax,[1]; [6],BLQ
same,Tmax,[1]; [6],BLQ
same,Vz_F,[1]; [6],BLQ
same,t½,[1]; [6],BLQ
"Cc1ccc(CN2CCC[C@@H](Nc3ccc4[nH]ncc4c3)C2)cc1OCCO [Compound 1.161, (R)-2-(5-((3-(1H-indazol-5-ylamino)piperidin-1-yl)methyl)-2-methylphenoxy)ethanol]",log10AUC (penh),[3]; 15 μmol/kg intraperitoneal,1.9042
same,"Percentage of carbachol-induced contraction at 1 μM compound, Avg %",rat trachea rings,40.3%
same,"Trachael Ring Contraction, %",rat trachea rings,40%
same,"Percent inhibition, ERK2",ERK2; 1 μM test compound,104%
same,"Percent inhibition, ERK2",ERK2; 10 μM test compound,92%
same,airway hyperreactivity,[4],prevention of airway hyperreactivity
"NC(=O)Cn1ccc2cc(CN3CCC[C@@H](Nc4ccc5[nH]ncc5c4)C3)ccc21 [Compound 1.162, (R)-2-(5-((3-(1H-indazol-5-ylamino)piperidin-1-yl)methyl)-1H-indol-1-yl)acetamide]",log10AUC (penh),[3]; 15 μmol/kg intraperitoneal,1.7001
same,"Percentage of carbachol-induced contraction at 1 μM compound, Avg %",rat trachea rings,34.4%
same,"Trachael Ring Contraction, %",rat trachea rings,34%
same,"Percent inhibition, ERK2",ERK2; 1 μM test compound,89%
same,"Percent inhibition, ERK2",ERK2; 10 μM test compound,60%
same,"Percent inhibition, ERK1",ERK1; 1 μM test compound,84%
same,"Percent inhibition, ERK1",ERK1; 10 μM test compound,50%
"NS(=O)(=O)c1cccc(CN2CCC[C@H](Nc3ccc4[nH]ncc4c3)C2)c1 [Compound 1.215, (S)-3-((3-(1H-indazol-5-ylamino)piperidin-1-yl)methyl)benzenesulfonamide]",log10AUC (penh),[3]; 15 μmol/kg intraperitoneal,2.0081
same,"Percentage of carbachol-induced contraction at 1 μM compound, Avg %",rat trachea rings,40.6%
same,"Trachael Ring Contraction, %",rat trachea rings,41%
"NCc1cccc(CN2CCC[C@@H](Nc3ccc4[nH]ncc4c3)C2)c1 [Compound 1.235, (R)-N-(1-(3-(aminomethyl)benzyl)piperidin-3-yl)-1H-indazol-5-amine]",log10AUC (penh),[3]; 15 μmol/kg intraperitoneal,1.9362
"Cc1ccc(CN2CC[C@@H](Nc3cccc4cnccc34)C2)cc1 [Compound 2.025, (R)-N-(1-(4-methylbenzyl)pyrrolidin-3-yl)isoquinolin-5-amine]",log10AUC (penh),[3]; 15 μmol/kg intraperitoneal,1.9667
same,"Percentage of carbachol-induced contraction at 1 μM compound, Avg %",rat trachea rings,33.3%
same,"Trachael Ring Contraction, %",rat trachea rings,33%
"Cc1ccc(CN2CC[C@@H](Nc3cccc4cnccc34)C2)cc1OCCO [Compound 2.064, (R)-2-(5-((3-(isoquinolin-5-ylamino)pyrrolidin-1-yl)methyl)-2-methylphenoxy)ethanol]",IL-1β %,"[5]; 4 h, 10 µM",14.3%
same,"IL-6, %","[5]; 4 h, 10 µM",45.7%
same,TNF-α %,"[5]; 4 h, 10 µM",66.2%
same,IL-1β %,[5]; average percent of stimulated IL-1β secretion from human monocytes at 10 μM of test compound,14.3%
same,"IL-6, %",[5]; average percent of stimulated IL-6 secretion from human monocytes at 10 μM of test compound,45.7%
same,TNF-α %,[5]; average percent of stimulated TNF-α secretion from human monocytes at 10 μM of test compound,66.2%
"OCCn1ccc2cc(CN3CC[C@@H](Nc4cccc5cnccc45)C3)ccc21 [Compound 2.066, (R)-2-(5-((3-(isoquinolin-5-ylamino)pyrrolidin-1-yl)methyl)-1H-indol-1-yl)ethanol]","Percent inhibition, ERK2",ERK2; 1 μM test compound,50%
same,"Percent inhibition, ERK2",ERK2; 10 μM test compound,12%
same,airway hyperreactivity,[4],prevention of airway hyperreactivity
same,"Percent inhibition, ERK1",ERK1; 1 μM test compound,52%
same,"Percent inhibition, ERK1",ERK1; 10 μM test compound,15%
"C[C@@H](N)[C@H]1CC[C@H](C(=O)Nc2ccncc2)CC1 [Compound Y-27632, reference compound]",log10AUC (penh),[3]; 30 μmol/kg oral,2.0135
same,"Percentage of carbachol-induced contraction at 1 μM compound, Avg %",rat trachea rings,83.7%
same,"Percentage of carbachol-induced contraction at 10 μM compound, Avg %",rat trachea rings,23.4%
same,IC50,rat trachea rings; relaxation of 1 μM carbachol precontracted rat tracheal rings,4780 nM
